Laboratory results published in US12495798B2, “Nicotinamide compound and herbicidal composition comprising compound” (KOREA RESEARCH INSTITUTE OF CHEMICAL TECHNOLOGY, priority 2019, dated 2025).

Legend:
Type in all cases: in vivo
[1] = test system: indian jointvetch; assay: Herbicidal activity test against upland field weeds (foliar treatment test); design: key to Foliar treatment herbicidal activity, Indian jointvetch: 0 (no control); 100 (complete control); settings: 50 g ai/ha, scale 0-100
Description: (§1) Experimental Example 1: Herbicidal Activity Test Against Upland Field Weeds (Foliar Treatment Test) Foliar treatment was performed as follows: After filling a square plastic pot having a surface area of 350 cm^2 with horticultural soil, seeds (10˜15 grains) or rootstocks (2 pieces) of 5 kinds of grassy weeds of sorghum, barnyard grass, quack grass, crabgrass, fall panicum, and 5 kinds of broadleaf weeds of black nightshade, indian jointvetch, velvetleaf, cocklebur, bindweed, which had been stored in a low temperature (6° C.), were sown. After growing for a certain period in greenhouse conditions (average temperature 30±5° C., light/dark=14/10 hours), test compound solutions were made by diluting with a preparation solution (including 50% acetone, 0.1% Tween-20) so that the final treatment amount of the test compounds was 50 or 75 g a.i./ha. The prepared test compound solution was used for treating foliage by hand-spraying 14 mL per pot in a fume hood. After the treatment, it was managed under the same greenhouse conditions as above, and after 14 days (after 21 days if necessary), the external symptoms and efficacy were investigated according to the scale of 0 (no control) to 100 (complete control). The results of Table 7 were obtained by evaluating weed control value to the untreated control by conducting visual assessment.

[2] = test system: quack grass; assay: as above; design: key to Foliar treatment herbicidal activity, quack grass: 0 (no control); 100 (complete control); settings: 50 g ai/ha, scale 0-100
Description: as §1

[3] = test system: black nightshade; assay: as above; design: key to Foliar treatment herbicidal activity, black nightshade: 0 (no control); 100 (complete control); settings: 50 g ai/ha, scale 0-100; for pest or weed control at 50 g/ha: Solanum nigrum
Description: as §1

[4] = test system: cocklebur; assay: as above; settings: Xanthium strumarium, 50 g ai/ha, scale 0-100
Description: as §1

[5] = test system: bindweed; assay: as above; design: key to Foliar treatment herbicidal activity, Bindweed: 0 (no control); 100 (complete control); settings: 50 g ai/ha, scale 0-100
Description: as §1

[6] = test system: fall panicum; assay: as above; design: key to Foliar treatment herbicidal activity, Fall panicum: 0 (no control); 100 (complete control); settings: 50 g ai/ha, scale 0-100; for pest or weed control at 50 g/ha: Panicum dichotomiflorum
Description: as §1

[7] = test system: crabgrass; assay: as above; design: key to Foliar treatment herbicidal activity, Crabgrass: 0 (no control); 100 (complete control); settings: 50 g ai/ha, scale 0-100; for pest or weed control at 50 g/ha: Digitaria sanguinalis
Description: as §1

[8] = test system: velvetleaf; assay: as above; design: key to Foliar treatment herbicidal activity, velvet leaf: 0 (no control); 100 (complete control); settings: 50 g ai/ha; for pest or weed control at 50 g/ha: Abutilon theophrasti, scale 0-100, read-out: Foliar treatment herbicidal activity, velvet leaf
Description: as §1

[9] = test system: barnyard grass; assay: as above; design: key to Foliar treatment herbicidal activity, barnyard grass: 0 (no control); 100 (complete control); settings: 50 g ai/ha, scale 0-100; for pest or weed control at 50 g/ha: Echinochloa crus-galli
Description: as §1

[10] = test system: sorghum; assay: as above; design: key to Foliar treatment herbicidal activity, Sorghum: 0 (no control); 100 (complete control); settings: 50 g ai/ha, scale 0-100; for plant injury at 50 g/ha: Sorghum
Description: as §1

[11] = test system: cotton; assay: Phytotoxicity test for upland field crops (foliar treatment test); design: key: 0 (no harm); 9 (complete withered)
Description: (§2) Experimental Example 3: Phytotoxicity Test for Upland Field Crops (Foliar Treatment Test)
(§3) Foliar treatment was performed for grown crops and weeds in a square plastic pot having a surface area of 50 cm^2 filled with horticultural soil. As a fertilizer per pot, 0.5 g of horticultural mixed fertilizer (N:P:K=17:21:17) was treated by mixing in the upper soil. Five kinds of crops such as rice, wheat, corn, soybean, and cotton were sown in each pot, and after growing for a certain period in greenhouse conditions (average temperature 30±5° C., light/dark=14/10 hours), test compound solutions were made by diluting with the diluent (33% acetone, 0.1% Tween-20) so that the final treatment amount of the test compounds was 19˜300 g a.i./ha. The prepared test compound solutions were treated using a spray booth (SB6-016) at a treatment amount of 100 ml per 1 m^2 of treatment area. The treated plants were managed under the same greenhouse conditions as above, and external symptoms and phytotoxicity were investigated 7 and 14 days after treatment (after 21 days if necessary). In the evaluation of the phytotoxicity for the crop, the grade of 0 (no harm) to 9 (complete withered) was used. The results of Table 9 were obtained by evaluating crop phytotoxicity value to the untreated control.

[12] = test system: soybean; assay: as above; design: key: 0 (no harm); 9 (complete withered)
Description: as §2, §3

[13] = test system: wheat; assay: as above; design: key: 0 (no harm); 9 (complete withered)
Description: as §2, §3

[14] = test system: rice; assay: as above; design: key: 0 (no harm); 9 (complete withered)
Description: as §2, §3

[15] = test system: corn; assay: as above; design: key: 0 (no harm); 9 (complete withered)
Description: as §2, §3

[16] = 50 g ai/ha, Cotton (7 days after treatment)
[17] = 50 g ai/ha, Cotton (14 days after treatment)
[18] = 100 g ai/ha, Cotton (7 days after treatment)
[19] = 100 g ai/ha, Cotton (14 days after treatment)
[20] = 50 g ai/ha, Soybean (7 days after treatment)
[21] = 50 g ai/ha, Soybean (14 days after treatment)
[22] = 100 g ai/ha, Soybean (7 days after treatment)
[23] = 100 g ai/ha, Soybean (14 days after treatment)
[24] = 50 g ai/ha, Wheat (7 days after treatment)
[25] = 50 g ai/ha, Wheat (14 days after treatment)
[26] = 100 g ai/ha, Wheat (7 days after treatment)
[27] = 100 g ai/ha, Wheat (14 days after treatment)
[28] = 50 g ai/ha, Rice (7 days after treatment)
[29] = 50 g ai/ha, Rice (14 days after treatment)
[30] = 100 g ai/ha, Rice (7 days after treatment)
[31] = 100 g ai/ha, Rice (14 days after treatment)
[32] = 50 g ai/ha, Corn (7 days after treatment)
[33] = 50 g ai/ha, Corn (14 days after treatment)
[34] = 100 g ai/ha, Corn (7 days after treatment)
[35] = 100 g ai/ha, Corn (14 days after treatment)

SMILES	pest or weed control at 50 g/ha [1]	Foliar treatment herbicidal activity, quack grass [2]	Foliar treatment herbicidal activity, black nightshade [3]	pest or weed control at 50 g/ha [4]	pest or weed control at 50 g/ha [5]	pest or weed control at 50 g/ha [6]	pest or weed control at 50 g/ha [7]	pest or weed control at 50 g/ha [8]	Foliar treatment herbicidal activity, barnyard grass [9]	Foliar treatment herbicidal activity, Sorghum [10]	pest or weed control at 50 g/ha [9]	Foliar treatment herbicidal activity, Crabgrass [7]	other results
Cn1nnnc1NC(=O)c1ccc(C(F)(F)F)nc1COCc1nnn(C(F)F)n1 [Compound No. 2-92, 2-(((2-(difluoromethyl)-2H-tetrazol-5-yl)methoxy)methyl)-N-(1-methyl-1H-tetrazol-5-yl)-6-(trifluoromethyl)nicotinamide]	70%	0	100	70%	70%	40%	20%	80%	0	0			
CN(C)c1nc(COCc2nc(C(F)(F)F)ccc2C(=O)Nc2nnnn2C)nn1C [Compound No. 2-133, 2-(((5-(dimethylamino)-1-methyl-1H-1,2,4-triazol-3-yl)methoxy)methyl)-N-(1-methyl-1H-tetrazol-5-yl)-6-(trifluoromethyl)nicotinamide]	95%	0	100	95%	90%	80%	98%	80%			90%		plant injury at 50 g/ha [10]: 20%
CN(Cc1nnn(C)n1)Cc1nc(C(F)(F)F)ccc1C(=O)Nc1nnnn1C [Compound No. 2-93, 2-((methyl((2-methyl-2H-tetrazol-5-yl)methyl)amino)methyl)-N-(1-methyl-1H-tetrazol-5-yl)-6-(trifluoromethyl)nicotinamide]	70%	0	100	95%	50%	30%	40%	80%			20%		plant injury at 50 g/ha [10]: 20%
Cn1nnnc1NC(=O)c1ccc(C(F)(F)F)nc1COCc1nnnn1C(F)F [Compound No. 1-85, 2-(((1-(difluoromethyl)-1H-tetrazol-5-yl)methoxy)methyl)-N-(1-methyl-1H-tetrazol-5-yl)-6-(trifluoromethyl)nicotinamide]	40%	0		90%	40%	40%		20%	0	0		0	
COC(=O)OC(C)N(C(=O)c1ccc(C(F)(F)F)nc1COCc1ncn(C)n1)c1nnnn1C (stereo not drawn) [Compound No. 4-1, methyl(1-(2-(((1-methyl-1H-1,2,4-triazol-3-yl)methoxy)methyl)-N-(1-methyl-1H-tetrazol-5-yl)-6-(trifluoromethyl)nicotinamido)ethyl)carbonate]													Foliar treatment phytotoxicity, Cotton [11, 16]: 3; Foliar treatment phytotoxicity, Cotton [11, 17]: 8; Foliar treatment phytotoxicity, Cotton [11, 18]: 3; Foliar treatment phytotoxicity, Cotton [11, 19]: 8; Foliar treatment phytotoxicity, Soybean [12, 20]: 4; Foliar treatment phytotoxicity, Soybean [12, 21]: 6; Foliar treatment phytotoxicity, Soybean [12, 22]: 4; Foliar treatment phytotoxicity, Soybean [12, 23]: 8; Foliar treatment phytotoxicity, Wheat [13, 24]: 0; Foliar treatment phytotoxicity, Wheat [13, 25]: 0; Foliar treatment phytotoxicity, Wheat [13, 26]: 0; Foliar treatment phytotoxicity, Wheat [13, 27]: 0; Foliar treatment phytotoxicity, Rice [14, 28]: 2; Foliar treatment phytotoxicity, Rice [14, 29]: 6; Foliar treatment phytotoxicity, Rice [14, 30]: 3; Foliar treatment phytotoxicity, Rice [14, 31]: 7; Foliar treatment phytotoxicity, Corn [15, 32]: 0; Foliar treatment phytotoxicity, Corn [15, 33]: 0; Foliar treatment phytotoxicity, Corn [15, 34]: 0; Foliar treatment phytotoxicity, Corn [15, 35]: 0
Cn1nnnc1COc1nc(C(F)(F)F)cc(Cl)c1C(=O)Nc1nnnn1C [Compound No. 1-13, 4-chloro-N-(1-methyl-1H-tetrazol-5-yl)-2-((1-methyl-1H-tetrazol-5-yl)methoxy)-6-(trifluoromethyl)nicotinamide]		0		20%					0	0		0	Foliar treatment herbicidal activity, Indian jointvetch [1]: 0; pest or weed control at 50 g/ha [3]: 60%; Foliar treatment herbicidal activity, Bindweed [5]: 0; Foliar treatment herbicidal activity, Fall panicum [6]: 0; Foliar treatment herbicidal activity, velvet leaf ([8]; scale 0-100): 0
Cn1nnnc1NC(=O)c1ccc(C(F)(F)F)nc1COc1nnnn1C [Compound No. 1-115, N-(1-methyl-1H-tetrazol-5-yl)-2-(((1-methyl-1H-tetrazol-5-yl)oxy)methyl)-6-(trifluoromethyl)nicotinamide]	40%	0		80%	80%			40%		0	30%	0	pest or weed control at 50 g/ha [3]: 95%; Foliar treatment herbicidal activity, Fall panicum [6]: 0
Cn1nnnc1CSc1nc(C(F)(F)F)ccc1C(=S)Nc1nnnn1C [1-44]													Foliar treatment phytotoxicity, Cotton [11, 16]: 4; Foliar treatment phytotoxicity, Cotton [11, 17]: 9; Foliar treatment phytotoxicity, Cotton [11, 18]: 5; Foliar treatment phytotoxicity, Cotton [11, 19]: 9; Foliar treatment phytotoxicity, Soybean [12, 20]: 6; Foliar treatment phytotoxicity, Soybean [12, 21]: 7; Foliar treatment phytotoxicity, Soybean [12, 22]: 6; Foliar treatment phytotoxicity, Soybean [12, 23]: 7; Foliar treatment phytotoxicity, Wheat [13, 24]: 0; Foliar treatment phytotoxicity, Wheat [13, 25]: 0; Foliar treatment phytotoxicity, Wheat [13, 26]: 0; Foliar treatment phytotoxicity, Wheat [13, 27]: 0; Foliar treatment phytotoxicity, Rice [14, 28]: 6; Foliar treatment phytotoxicity, Rice [14, 29]: 9; Foliar treatment phytotoxicity, Rice [14, 30]: 6; Foliar treatment phytotoxicity, Rice [14, 31]: 9; Foliar treatment phytotoxicity, Corn [15, 32]: 5; Foliar treatment phytotoxicity, Corn [15, 33]: 3; Foliar treatment phytotoxicity, Corn [15, 34]: 5; Foliar treatment phytotoxicity, Corn [15, 35]: 3
